In patent US10160764B2 (priority 2016, dated 2018) one finds EC50 data, which are given here for 1 compound.

Usually EC50 stands for the midpoint of the concentration-response curve.

The assay addresses influenza virus minigenome (PB2, PB1, PA, NP, Luciferase reporter), Hubei (Influenza A virus, UniProt A0A1L2FNK2). Type of assay: cell-based. The settings on record: read-out: RNP_Hubei EC50.

Consider `O=C1c2c(O)c(=O)cnn2[C@@H]([C@@H](c2cccc(F)c2)c2ccc(F)c(F)c2)[C@H]2CCCN12` [Example 34, (9aR,10S)-10-((S)-(3,4-difluorophenyl)(3-fluorophenyl)methyl)-4-hydroxy-8,9,9a,10-tetrahydro-7H-pyrrolo[1′,2′:4,5]pyrazino[1,2-b]pyridazine-3,5-dione], for which the EC50 is 43 nM.
